In the supplement of paper PMC11208160:

Test: recombinant barcode read abundance after kanamycin selection (control-corrected) (log10(CPM+1)); higher = more efficient recombination; sequences stand for … in AGTGCAGAGAAAATCGGCCAGTTTTCTCTGCCTGCAGTCCGCATGCCGT…ATTTATGCAGCGGACTGCCTTTCTCCCAAAGTGATAAACCGGACAGTATCATGGACCGGTTTTCCCGGTAATCCGTATTTGCAAGGTTGGTTTCACT; site = the 11-nt target
Protocol: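 Same pooled E. coli target screen (IS621 bridge recombinase, kanamycin selection, control-corrected CPM, mean of 2 biological replicates). Here the two core-binding nucleotides of the LTG and RTG of the bridge RNA target-binding loop are mutated. Target and donor CT cores are held constant, and the other 9 guide positions match the target. The target is read from the library oligo sequence. Molecule = full bridge RNA written as DNA: nt 1-80 from the library oligo, rest WT scaffold.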

Sequence	recombinant barcode read abundance (log10)
AAACAGTCTTGGGTTCTAACCTGTTGCCTTC [AAACAGTCTAG_LTGcore_CT_RTGcore_GA] (site AAACAGTCTAG) (LTG core: CT, RTG core: GA)	1.45
AAACAGTTATGGGTTCTAACCTGTTGCCTAG [AAACAGTCTAG_LTGcore_TA_RTGcore_CT] (site AAACAGTCTAG) (LTG core: TA, RTG core: CT)	0.0345
AAACAGTTATGGGTTCTAACCTGTTGCCTTA [AAACAGTCTAG_LTGcore_TA_RTGcore_TA] (site AAACAGTCTAG) (LTG core: TA, RTG core: TA)	0.0835
AAACATGATTGGGTTCTAACCTGTTGCCTAG [AAACATGCTAG_LTGcore_AT_RTGcore_CT] (site AAACATGCTAG) (LTG core: AT, RTG core: CT)	0.372
AAACATGCCTGGGTTCTAACCTGTTGCCTAG [AAACATGCTAG_LTGcore_CC_RTGcore_CT] (site AAACATGCTAG) (LTG core: CC, RTG core: CT)	0.55
AAACATGCCTGGGTTCTAACCTGTTGCCTGG [AAACATGCTAG_LTGcore_CC_RTGcore_CC] (site AAACATGCTAG) (LTG core: CC, RTG core: CC)	0.107
AAACATGGGTGGGTTCTAACCTGTTGCCTAG [AAACATGCTAG_LTGcore_GG_RTGcore_CT] (site AAACATGCTAG) (LTG core: GG, RTG core: CT)	0.427
AAACATGGTTGGGTTCTAACCTGTTGCCTAC [AAACATGCTAG_LTGcore_GT_RTGcore_GT] (site AAACATGCTAG) (LTG core: GT, RTG core: GT)	0.108
AAACATGTATGGGTTCTAACCTGTTGCCTAG [AAACATGCTAG_LTGcore_TA_RTGcore_CT] (site AAACATGCTAG) (LTG core: TA, RTG core: CT)	0.0615
AAACATGTCTGGGTTCTAACCTGTTGCCTAG [AAACATGCTAG_LTGcore_TC_RTGcore_CT] (site AAACATGCTAG) (LTG core: TC, RTG core: CT)	0.0742
AAACATGTCTGGGTTCTAACCTGTTGCCTGA [AAACATGCTAG_LTGcore_TC_RTGcore_TC] (site AAACATGCTAG) (LTG core: TC, RTG core: TC)	0.0728
ACGGGACACTGGGTTCTAACCTGTTGCAGAG [ACGGGACCTCT_LTGcore_AC_RTGcore_CT] (site ACGGGACCTCT) (LTG core: AC, RTG core: CT)	0.0883
ACGGGACACTGGGTTCTAACCTGTTGCAGGT [ACGGGACCTCT_LTGcore_AC_RTGcore_AC] (site ACGGGACCTCT) (LTG core: AC, RTG core: AC)	0.0869
ACGGGACCTTGGGTTCTAACCTGTTGCAGAG [ACGGGACCTCT_LTGcore_CT_RTGcore_CT] (site ACGGGACCTCT) (LTG core: CT, RTG core: CT)	2.63
ACGGGACCTTGGGTTCTAACCTGTTGCAGCC [ACGGGACCTCT_LTGcore_CT_RTGcore_GG] (site ACGGGACCTCT) (LTG core: CT, RTG core: GG)	1.11
ACGGGACCTTGGGTTCTAACCTGTTGCAGCG [ACGGGACCTCT_LTGcore_CT_RTGcore_CG] (site ACGGGACCTCT) (LTG core: CT, RTG core: CG)	0.0844
ACGGGACCTTGGGTTCTAACCTGTTGCAGGG [ACGGGACCTCT_LTGcore_CT_RTGcore_CC] (site ACGGGACCTCT) (LTG core: CT, RTG core: CC)	0.931
ACGGGACCTTGGGTTCTAACCTGTTGCAGTA [ACGGGACCTCT_LTGcore_CT_RTGcore_TA] (site ACGGGACCTCT) (LTG core: CT, RTG core: TA)	0.818
ACGGGACCTTGGGTTCTAACCTGTTGCAGTG [ACGGGACCTCT_LTGcore_CT_RTGcore_CA] (site ACGGGACCTCT) (LTG core: CT, RTG core: CA)	0.172
ACGGGACGATGGGTTCTAACCTGTTGCAGTC [ACGGGACCTCT_LTGcore_GA_RTGcore_GA] (site ACGGGACCTCT) (LTG core: GA, RTG core: GA)	0.229
ACGGGACGGTGGGTTCTAACCTGTTGCAGCC [ACGGGACCTCT_LTGcore_GG_RTGcore_GG] (site ACGGGACCTCT) (LTG core: GG, RTG core: GG)	0.12
AGGAGGTACTGGGTTCTAACCTGTTGCCTAG [AGGAGGTCTAG_LTGcore_AC_RTGcore_CT] (site AGGAGGTCTAG) (LTG core: AC, RTG core: CT)	0.105

Sequence	recombinant barcode read abundance (log10)
AGGAGGTCTTGGGTTCTAACCTGTTGCCTAA [AGGAGGTCTAG_LTGcore_CT_RTGcore_TT] (site AGGAGGTCTAG) (LTG core: CT, RTG core: TT)	0.203
AGGAGGTCTTGGGTTCTAACCTGTTGCCTAG [AGGAGGTCTAG_LTGcore_CT_RTGcore_CT] (site AGGAGGTCTAG) (LTG core: CT, RTG core: CT)	1.59
AGGAGGTCTTGGGTTCTAACCTGTTGCCTAT [AGGAGGTCTAG_LTGcore_CT_RTGcore_AT] (site AGGAGGTCTAG) (LTG core: CT, RTG core: AT)	0.407
AGGAGGTCTTGGGTTCTAACCTGTTGCCTCA [AGGAGGTCTAG_LTGcore_CT_RTGcore_TG] (site AGGAGGTCTAG) (LTG core: CT, RTG core: TG)	0.322
AGGAGGTCTTGGGTTCTAACCTGTTGCCTCG [AGGAGGTCTAG_LTGcore_CT_RTGcore_CG] (site AGGAGGTCTAG) (LTG core: CT, RTG core: CG)	0.386
AGGAGGTCTTGGGTTCTAACCTGTTGCCTGT [AGGAGGTCTAG_LTGcore_CT_RTGcore_AC] (site AGGAGGTCTAG) (LTG core: CT, RTG core: AC)	0.126
AGGAGGTTCTGGGTTCTAACCTGTTGCCTGA [AGGAGGTCTAG_LTGcore_TC_RTGcore_TC] (site AGGAGGTCTAG) (LTG core: TC, RTG core: TC)	0.0288
AGGCCTCAATGGGTTCTAACCTGTTGCCTTT [AGGCCTCCTAG_LTGcore_AA_RTGcore_AA] (site AGGCCTCCTAG) (LTG core: AA, RTG core: AA)	0.0414
AGGCCTCACTGGGTTCTAACCTGTTGCCTAG [AGGCCTCCTAG_LTGcore_AC_RTGcore_CT] (site AGGCCTCCTAG) (LTG core: AC, RTG core: CT)	0.134
AGGCCTCAGTGGGTTCTAACCTGTTGCCTCT [AGGCCTCCTAG_LTGcore_AG_RTGcore_AG] (site AGGCCTCCTAG) (LTG core: AG, RTG core: AG)	0.182
AGGCCTCCCTGGGTTCTAACCTGTTGCCTAG [AGGCCTCCTAG_LTGcore_CC_RTGcore_CT] (site AGGCCTCCTAG) (LTG core: CC, RTG core: CT)	0.293
AGGCCTCCTTGGGTTCTAACCTGTTGCCTCA [AGGCCTCCTAG_LTGcore_CT_RTGcore_TG] (site AGGCCTCCTAG) (LTG core: CT, RTG core: TG)	0.154
AGGCCTCCTTGGGTTCTAACCTGTTGCCTGC [AGGCCTCCTAG_LTGcore_CT_RTGcore_GC] (site AGGCCTCCTAG) (LTG core: CT, RTG core: GC)	0.112
AGGCCTCCTTGGGTTCTAACCTGTTGCCTGG [AGGCCTCCTAG_LTGcore_CT_RTGcore_CC] (site AGGCCTCCTAG) (LTG core: CT, RTG core: CC)	0.337
AGGCCTCCTTGGGTTCTAACCTGTTGCCTTG [AGGCCTCCTAG_LTGcore_CT_RTGcore_CA] (site AGGCCTCCTAG) (LTG core: CT, RTG core: CA)	0.722
AGGCCTCGGTGGGTTCTAACCTGTTGCCTCC [AGGCCTCCTAG_LTGcore_GG_RTGcore_GG] (site AGGCCTCCTAG) (LTG core: GG, RTG core: GG)	0.0521
AGGCCTCTCTGGGTTCTAACCTGTTGCCTGA [AGGCCTCCTAG_LTGcore_TC_RTGcore_TC] (site AGGCCTCCTAG) (LTG core: TC, RTG core: TC)	0.047
AGGCCTCTTTGGGTTCTAACCTGTTGCCTAA [AGGCCTCCTAG_LTGcore_TT_RTGcore_TT] (site AGGCCTCCTAG) (LTG core: TT, RTG core: TT)	0.196
AGGCCTCTTTGGGTTCTAACCTGTTGCCTAG [AGGCCTCCTAG_LTGcore_TT_RTGcore_CT] (site AGGCCTCCTAG) (LTG core: TT, RTG core: CT)	0.103
AGGCGGGCATGGGTTCTAACCTGTTGCGGAG [AGGCGGGCTCC_LTGcore_CA_RTGcore_CT] (site AGGCGGGCTCC) (LTG core: CA, RTG core: CT)	2.3
AGGCGGGCATGGGTTCTAACCTGTTGCGGTG [AGGCGGGCTCC_LTGcore_CA_RTGcore_CA] (site AGGCGGGCTCC) (LTG core: CA, RTG core: CA)	0.776
AGGCGGGCGTGGGTTCTAACCTGTTGCGGCG [AGGCGGGCTCC_LTGcore_CG_RTGcore_CG] (site AGGCGGGCTCC) (LTG core: CG, RTG core: CG)	0.0653
